This assay addresses T1, CDK2 (Homo sapiens, UniProt P24941).
T1 construct: endogenous in cells; host or cells: OVCAR3 cells
The experiment in a line: Phospho-RB measurement in OVCAR3 cells (HTRF phospho-RB cellular kit). Type of assay: cell-based. The note with it: inhibition of RB phosphorylation at S807/811 (HTRF, TR-FRET ratio 665/620), 24 h compound treatment, 0.3 to 10,000 nM. How it is done: Biological Example 1: Phospho-RB Measurement in OVCAR3 Cells
The ability of compounds of Formula (I) to inhibit CDK2 was determined in OVCAR3 cells by measuring inhibition of phosphorylation of RB protein at S780 and S807/811. Phosphorylation of RB protein at S807/811 were measured using HTRF phospho-RB cellular kits (Cat #64RBS807PEG) from Cisbio.
On Day 1, OVCAR3 cells were seeded into 96-well tissue-culture treated plates at 20,000 cells/well in 200 μL and incubated overnight at 37° C. in CO2 atmosphere. On Day 2, the cells were treated with test compounds at concentrations from 0.3 to 10,000 nM using HP D300 digital dispenser. Twenty-four hours after compound treatment, cell culture media was removed by flicking the plate and tapping the plate against clean paper towel. Immediately 30 μL 1× lysis buffer was supplemented from the kit and the plate was incubated at room temperature on shaker for 30 min. After homogenization by pipetting up and down, 8 μL cell lysate from 96-well cell culture plate was transferred to 384-well small volume white detection plate. 2 μL premixed detection solution was added and the plate was covered with sealer. To prepare the detection solution, d2 conjugated-phospho-RB antibody and Eu-cryptate conjugated phosphor-RB antibody were diluted into detection buffer following manufacturer's instruction.
Detection plates were incubated for 4 h at room temperature and read on ClarioStar (BMG Labtech) in TR-FRET mode ([…]). The TR-FRET ratio (665 nM/620 nM) was plotted against the compound concentration and normalized to DMSO controls. Half maximal inhibition concentration (IC50) values are calculated with a four-parameter logistic fit using GraphPad Prism (version 8; La Jolla, CA).
(TR-FRET usually uses a lanthanide donor and a delayed reading to cut background.)

For `CC(C)(C)c1nc(-c2cccc(NS(=O)(=O)N3CCOc4ccccc43)c2F)c(-c2ccnc(NC3CCN(S(=O)(=O)N4CCNCC4)CC3)n2)s1` [Example 136, N-(3-(2-(tert-butyl)-5-(2-((1-(piperazin-1-ylsulfonyl)piperidin-4-yl)amino)-pyrimidin-4-yl)thiazol-4-yl)-2-fluorophenyl)-2,3-dihydro-4H-benzo[b][1,4] oxazine-4-sulfonamide], the IC50 is 1490 nM.

For `O=S1(=O)CC2(CC(Nc3nccc(-c4sc(N5C6CCC5COC6)nc4-c4cccc(NS(=O)(=O)N5Cc6ccccc6C5)c4F)n3)C2)C1` [Example 4, N-(3-(2-(3-oxa-8-azabicyclo[3.2.1]octan-8-yl)-5-(2-((2,2-dioxido-2-thiaspiro-[3.3]heptan-6-yl)amino)pyrimidin-4-yl)thiazol-4-yl)-2-fluorophenyl)-isoindoline-2-sulfonamide], the IC50 is 138 nM.

Turning to `CC(C)(C)c1nc(-c2cccc(NS(=O)(=O)N3Cc4cccc(Oc5ccccc5)c4C3)c2F)c(-c2ccnc(NC3CCN(S(C)(=O)=O)CC3)n2)s1` [Example 211, N-(3-(2-(tert-butyl)-5-(2-((1-(methylsulfonyl)-piperidin-4-yl)amino)-pyrimidin-4-yl)thiazol-4-yl)-2-fluoro-phenyl)-4-phenoxyisoindoline-2-sulfonamide], the IC50 turned out to be 613 nM.

On to `CC1(c2nc(-c3cccc(NS(=O)(=O)N4Cc5ccncc5C4)c3F)c(-c3ccnc(NC4CC5(C4)CS(=O)(=O)C5)n3)s2)CCOCC1` [Example 209, N-(3-(5-(2-((2,2-dioxido-2-thiaspiro-[3.3]-heptan-6-yl)amino)pyrimidin-4-yl)-2-(4-methyltetrahydro-2H-pyran-4-yl)thiazol-4-yl)-2-fluorophenyl)-1,3-dihydro-2H-pyrrolo [3,4-c]-pyridine-2-sulfonamide], for which the IC50 was determined as 350 nM.

`CC(C)(C)c1nc(-c2cccc(NS(=O)(=O)N3CC4CC4C3)c2F)c(-c2ccnc(NC3CCN(S(=O)(=O)N4CCNCC4)CC3)n2)s1` (centres unmarked) [Example 155, N-(3-(2-(tert-butyl)-5-(2-((1-(piperazin-1-ylsulfonyl)piperidin-4-yl)amino)-pyrimidin-4-yl)thiazol-4-yl)-2-fluorophenyl)-3-azabicyclo[3.1.0]-hexane-3-sulfonamide]: the IC50 stood at 1060 nM.

Regarding `CN(C)CCOc1cccc2c1CN(S(=O)(=O)Nc1cccc(-c3nc(C(C)(C)C)sc3-c3ccnc(NC4CCN(S(C)(=O)=O)CC4)n3)c1F)C2` [Example 150, N-(3-(2-(tert-butyl)-5-(2-((1-(methylsulfonyl)piperidin-4-yl)amino)-pyrimidin-4-yl)thiazol-4-yl)-2-fluoro-phenyl)-4-(2-(dimethylamino)-ethoxy)-isoindoline-2-sulfonamide], the IC50 worked out at 1840 nM.

As to `N#Cc1ccc2c(c1)N(S(=O)(=O)Nc1cccc(-c3nc(N4C5CCC4COC5)sc3-c3ccnc(NC4CC5(C4)CS(=O)(=O)C5)n3)c1F)CC2` [Example 6, N-(3-(2-(3-oxa-8-azabicyclo[3.2.1]octan-8-yl)-5-(2-((2,2-dioxido-2-thiaspiro-[3.3]heptan-6-yl)amino)pyrimidin-4-yl)thiazol-4-yl)-2-fluorophenyl)-6-cyanoindoline-1-sulfonamide], the IC50 was determined as 109 nM.

In the case of `O=S1(=O)CC2(CC(Nc3nccc(-c4sc(C56CC(C5)C6)nc4-c4cccc(NS(=O)(=O)N5CC6CCC(CC6)C5)c4F)n3)C2)C1` [Example 270, (1s,5s)-N-(3-(2-(bicyclo[1.1.1]pentan-1-yl)-5-(2-((2,2-dioxido-2-thiaspiro[3.3]-heptan-6-yl)-amino)pyrimidin-4-yl)thiazol-4-yl)-2-fluorophenyl)-3-azabicyclo[3.2.2] nonane-3-sulfonamide], the IC50 came to 3430 nM.

Consider `CC1(c2nc(-c3cccc(NS(=O)(=O)N4CCc5ccc(C#N)cc54)c3F)c(-c3ccnc(N[C@H]4[C@@H]5CS(=O)(=O)C[C@@H]54)n3)s2)CCOCC1` [Example 10], for which the IC50 was determined as 73 nM.

As to `CC(C)(C)OC(=O)N1CCN(S(=O)(=O)Nc2cccc(-c3nc(C(C)(C)C)sc3-c3ccnc(NC4CCN(S(C)(=O)=O)CC4)n3)c2F)c2ccccc21` [Example 101, tert-butyl 4-(N-(3-(2-(tert-butyl)-5-(2-((1-(methylsulfonyl)piperidin-4-yl)amino)-pyrimidin-4-yl)thiazol-4-yl)-2-fluorophenyl)-sulfamoyl)-3,4-dihydroquinoxaline-1(2H)-carboxylate], the IC50 stood at 1830 nM.

With `CS(=O)(=O)[C@H]1CC[C@H](Nc2nccc(-c3sc(C45CC(C(F)(F)F)(C4)C5)nc3-c3cccc(NS(=O)(=O)N4CCc5ccc(Cl)cc54)c3F)n2)CC1` [Example 54, 6-chloro-N-(2-fluoro-3-(5-(2-(((1r,4r)-4-(methylsulfonyl)cyclohexyl)amino)pyrimidin-4-yl)-2-(3-(trifluoromethyl)bicyclo-[1.1.1]-pentan-1-yl)thiazol-4-yl)phenyl)-indoline-1-sulfonamide], the IC50 is 382 nM.

Take `CN1CCN(S(=O)(=O)Nc2cccc(-c3nc(C45CC(C4)C5)sc3-c3ccnc(NC4CC5(C4)CS(=O)(=O)C5)n3)c2F)c2ccccc21` [Example 274, N-(3-(2-(bicyclo [1.1.1]pentan-1-yl)-5-(2-((2,2-dioxido-2-thiaspiro[3.3]heptan-6-yl)amino)-pyrimidin-4-yl)thiazol-4-yl)-2-fluorophenyl)-4-methyl-3,4-dihydro-quinoxaline-1(2H)-sulfonamide]: the IC50 stood at 130 nM.

As for `CC(C)(C)c1nc(-c2cccc(NS(=O)(=O)N3CCc4ccc(C(C)(C)C#N)cc43)c2F)c(-c2ccnc(NC3CC4(C3)CS(=O)(=O)C4)n2)s1` [Example 260, N-(3-(2-(tert-butyl)-S-(2-((2,2-dioxido-2-thiaspiro[3.3]heptan-6-yl)amino)-pyrimidin-4-yl)thiazol-4-yl)-2-fluoro-phenyl)-6-(2-cyanopropan-2-yl)indoline-1-sulfonamide], the IC50 was determined as 662 nM.

As to `CC(C)(C)c1nc(-c2cccc(NS(=O)(=O)N3CCOc4ccccc4C3)c2F)c(-c2ccnc(NC3CCN(S(C)(=O)=O)CC3)n2)s1` [Example 91, N-(3-(2-(tert-butyl)-5-(2-((1-(methylsulfonyl)-piperidin-4-yl)amino)-pyrimidin-4-yl)thiazol-4-yl)-2-fluorophenyl)-2,3-dihydrobenzo [f][1,4]-oxazepine-4 (5H)-sulfonamide], the concentration for half-maximal inhibition (IC50) came out at 117 nM.

On to `CC(C)(C)c1nc(-c2cccc(NS(=O)(=O)N3CCc4cc(C#N)ccc43)c2F)c(-c2ccnc(NC3CCN(S(C)(=O)=O)CC3)n2)s1` [Example 92, N-(3-(2-(tert-butyl)-5-(2-((1-(methylsulfonyl)piperidin-4-yl)amino)-pyrimidin-4-yl)thiazol-4-yl)-2-fluorophenyl)-5-cyanoindoline-1-sulfonamide], for which the IC50 turned out to be 305 nM.

Consider `CC1(C)CN(S(=O)(=O)Nc2cccc(-c3nc(C45CC(C(F)(F)F)(C4)C5)sc3-c3ccnc(N[C@H]4CC[C@H](S(C)(=O)=O)CC4)n3)c2F)c2ccccc21` [Example 291, N-(2-fluoro-3-(5-(2-(((1r,4r)-4-(methylsulfonyl)cyclohexyl)amino)pyrimidin-4-yl)-2-(3-(trifluoromethyl)-bicyclo[1.1.1]pentan-1-yl)thiazol-4-yl)phenyl)-3,3-dimethylindoline-1-sulfonamide], for which the IC50 was 2750 nM.

Consider `CC1(c2nc(-c3cccc(NS(=O)(=O)N4Cc5cccc(C(F)(F)F)c5C4)c3F)c(-c3ccnc(N[C@H]4[C@@H]5CS(=O)(=O)C[C@@H]54)n3)s2)CCOCC1` [Example 8, N-(3-(5-(2-(((1R,5S, 6r)-3,3-dioxido-3-thiabicyclo[3.1.0]hexan-6-yl)amino)-pyrimidin-4-yl)-2-(4-methyltetrahydro-2H-pyran-4-yl)thiazol-4-yl)-2-fluorophenyl)-4-(trifluoromethyl)-isoindoline-2-sulfonamide], for which the IC50 came out at 15.2 nM.

Turning to `CC(C)(C)c1nc(-c2cccc(NS(=O)(=O)N3Cc4cccc(C#N)c4C3)c2F)c(-c2ccnc(NC3CCN(S(C)(=O)=O)CC3)n2)s1` [Example 185, N-(3-(2-(tert-butyl)-5-(2-((1-(methylsulfonyl)-piperidin-4-yl)amino)-pyrimidin-4-yl)thiazol-4-yl)-2-fluoro-phenyl)-4-cyanoisoindoline-2-sulfonamide], the IC50 was determined as 55 nM.

Regarding `CC(C)(C)c1nc(-c2cccc(NS(=O)(=O)N3CCOc4ccccc4C3)c2F)c(-c2ccnc(NC3CCN(S(=O)(=O)N4CCNCC4)CC3)n2)s1` [Example 115, N-(3-(2-(tert-butyl)-5-(2-((1-(piperazin-1-ylsulfonyl)piperidin-4-yl)amino)-pyrimidin-4-yl)thiazol-4-yl)-2-fluorophenyl)-2,3-dihydrobenzo [f][1,4]-oxazepine-4(5H)-sulfonamide], the IC50 is 636 nM.

As for `CN1CCN(S(=O)(=O)Nc2cccc(-c3nc(C(C)(C)C)sc3-c3ccnc(NC4CCN(S(C)(=O)=O)CC4)n3)c2F)c2ccccc21` [Example 99, N-(3-(2-(tert-butyl)-5-(2-((1-(methylsulfonyl)piperidin-4-yl)amino)-pyrimidin-4-yl)thiazol-4-yl)-2-fluoro-phenyl)-4-methyl-3,4-dihydro-quinoxaline-1(2H)-sulfonamide], the IC50 came to 202 nM.

By IC50 is commonly meant the concentration at which inhibition is half-maximal.

These data come from patent US20260274833A1 (NiKang Therapeutics, Inc., priority 2022, published 2026).
